Data set [1] can be described thus: Conversion of chelate form to open form in citrate/phosphate buffer, 19F NMR. The note with it: 310 K. It counts as physicochemical. The procedure: To gain further insight into the reactivity of 4 the conversion of the chelate form to open form of the complex was probed in three different citrate/phosphate buffer solutions at 310 K (Figure 9). Aqueous solutions of 4 at pD 7.61 (where the chelate form of the complex exists exclusively) were diluted into citrate/phosphate buffer to yield solutions at pD 4.12, 4.91 and 5.96 (2.46 mM complex, 0.1 M NaCl). The conversion of the chelate form to the open form was monitored by ^19F NMR spectroscopy over 16 h. Under the most acidic conditions (pD 4.12) equilibrium was reached within the 16 h experiment duration, with 93% of 4 converting to the open form.
The conversion of the chelate-form of 4 to the activated open-form was investigated by dilution of a stock solution of 4 (D2O, 0.1 M NaCl) into citrate/phosphate buffer solutions (D2O, 0.1 M NaCl) at pD 4.12, 4.91 and 5.96 to yield solutions at a final complex concentration of 2.46 mM. The samples were maintained at 310 K within the NMR spectrometer and ^19F NMR spectra were recorded every 15 min for 16 h. The ratio of the –CF3 signals corresponding to the open- and chelate-forms of the complex were determined to allow a plot of % open-form versus time. The fitting of the equation y = C + A(1−e^−kx) (C-offset from zero; A-amplitude of the curve) to each set of experimental data yielded the half-life for the fraction of the chelate-form of 4 which is converted to the open-form.

For a further data set, the system named is HT-29 cell line. In words: MTT cytotoxicity assay. In kind it is cell-based, human. The note with it: HT-29, concentrations up to 100 µM, 72 h. Here is the method:
Having established the ability of 4 to coordinate to biologically relevant ligands in a pH-dependent manner we evaluated the cytotoxicity of 4 (and 6 as a control unable to form an intramolecular chelate) against the HT-29 cell line using the MTT assay. In light of the potential non-covalent interaction of 4 with protein as described earlier these assays were performed for both 4 and 6 using media containing 10% and 1% fetal calf serum to assess the effect of serum concentration on cytotoxicity. […] It is clear that while 6 is readily able to coordinate to 5′-GMP and L-histidine, and presumably forms biomacromolecular adducts in cell culture experiments, the nature and/or level of adducts formed is not detrimental to HT-29 cell viability. The ability of 4 to form biomacromolecular adducts in cell culture conditions will be less than that of 6 due to substantial intramolecular sulfonamide ligation under these pH conditions. […]
HT-29 (human colon adenocarcinoma) cells were counted and the concentration adjusted to 3 × 10^4 cells/.mL 100 µL of the cell suspension was dispensed into the wells of a 96 well plate. […] The results were read on a plate reader (Biotek ELX800 Universal Microplate Reader) at 570 nm. The viability of the cells is expressed as % of cell survival of each dilution against the “cells only” control taken as 100% survival. […]
In general terms: Tetrazolium dyes change colour on reduction, which living cells bring about.

A further data set addresses bovine serum albumin (Bos taurus, UniProt P02769). The experiment in a line: Incubation with bovine serum albumin monitored by 1H and 19F NMR. As to conditions: 72 h, 2.46 mM complex, 0.5 mM BSA, 310 K, pD 7.4.
The test system of another data set is 5′-GMP. In words: NMR binding study with the model ligand 5′-GMP. The note with it: 1 eq. 5′-GMP, 2.46 mM complex, phosphate buffer 0.2 M, 310 K, 0.1 M NaCl. Here is the method:
(§1) The coordination of a metallodrug, via the metal ion, to biomacromolecular targets is a major mechanism by which biological activity is exerted in many of these complexes. To evaluate the ability of intramolecular sulfonamide ligation to regulate the availability of a coordination site at the ruthenium ion in this family of complexes, and therefore control ligation of endogenous ligands to the complex, binding studies were performed between 4 (and the control compound 6) and the model ligands L-histidine and 5′-GMP. 4 and 6 were incubated with 1 eq. of 5′-GMP or L-histidine (2.46 mM complex, phosphate buffer (0.2 M), 310 K, 0.1 M NaCl) for 144 h at pD values of 7.5 and 6.5 in each case. Incubations were monitored by ^1H and ^19F NMR. […] The degree of L-histidine coordination was not able to be quantified using ^1H NMR due to hydrogen-deuterium exchange which occurs at the histidine C2 proton and low intensity and overlapping peaks, but was more pronounced at pD 7.5 than pD 6.5. […]
(§2) The reactivity of 4 and 6 towards 5′-GMP/L-histidine was assessed by mixing stock solutions of the complex and ligand in phosphate buffer (both in D2O, 0.1 M NaCl) to yield 1:1 solutions with each component present at a concentration of 2.46 mM (200 mM buffer concentration, 0.1 M NaCl). […] Samples were incubated at 310 K and monitored using ^1H and ^19F NMR. […]

Data set [2] in a line: NMR binding study with the model ligand L-histidine. The note with it: 1 eq. L-histidine, 2.46 mM complex, phosphate buffer 0.2 M, 310 K, 0.1 M NaCl. Here is the method: as §1, §2
Data set [3] can be described thus: Solution stability (NaCl, arene loss on standing of NMR solution). In kind it is physicochemical. The note with it: standing for extended periods of time (>24 h). Here is the method:
A total of six half-sandwich ruthenium(II) arene complexes were synthesized for evaluation in this study (Figure 2). [Ru(η^6-C6H5CH2CH2NHR)(en)(Cl)]PF6 (R = Ms (1), tresyl (Tr) (2), Tf (3) or acetyl (6)) and [Ru(η^6-C6H5(CH2)3CH2NHTf)(en)(Cl)]PF6 (5) were prepared via reaction of the respective [RuCl2(η^6-C6H5(CH2)nCH2NHR)]2 (R = acetyl, Ms, Tf or Tr) complex with ethylenediamine followed by the addition of NH4PF6 then crystallization of the product by concentration of the methanol solution or via vapor diffusion with diethyl ether. [Ru(η^6:κ^1-C6H5(CH2)2CH2NTf)(en)]PF6 (4) was prepared via the reaction of [RuCl2(η^6-C6H5(CH2)2CH2NHTf)]2 with ethylenediamine then treatment with silver carbonate and triethylamine, followed by addition of NH4PF6 and precipitation of the product by concentration and cooling. All complexes are soluble in water (≥5 mM) and stable in the presence of NaCl (100 mM). All complexes were characterized by ^1H, ^13C and ^19F NMR spectroscopy, high resolution mass spectrometry and elemental analysis.
During these studies it was observed that for 1–3 arene-ruthenium cleavage began to occur on standing of the NMR solution for even relatively short periods of time (>1 h) (Figures S12–S14).

A short description of data set [4]: pH titration by 1H/19F NMR of open and chelate forms (apparent pKa). The note with it: 2.46 mM complex, D2O, 0.1 M NaCl; for Apparent pKa: Henderson-Hasselbalch fit of % open form versus pD. In kind it is physicochemical. Here is the method:
The ability of the tethered sulfonamide functionality to reversibly ligate to the ruthenium atom in a pH-dependent manner, forming an intramolecular chelate, was examined by recording ^1H NMR spectra of 1–5 (and ^19F NMR spectra for 2–5) (2.46 mM complex, D2O, […], 0.1 M NaCl) as a function of pH. Within these spectra two unique sets of signals were observed, the relative proportion of these being pH-dependent, that were assigned to the open and chelate forms of the complexes (Figures S12–S15). Plotting the percentage of open form of the complex, calculated from the ratio of selected ligand signals corresponding to the open and chelate forms of the complexes, versus pD yielded sigmoidal curves in each case and apparent pKa values for 1–5 (Table 1) were determined by fitting of the Henderson-Hasselbalch equation to the data (Figure 7 and Figure 8).
pH titrations of 1–6 and [Ru(η^6-C6H5CH2CH2NHTr)(C2O4)(H2O)] were conducted by adjustment of the pD of solutions of the complexes (2.46 mM, 295 K, 0.1 M NaCl) in D2O through addition of 1–5 µL aliquots of NaOD (3.6 wt.%) and DCl (1.8 wt.%) solutions in D2O. Following pD adjustment the solutions were left to equilibrate (for 1–6 this was up to 36 h) then the ^1H and ^19F spectra of each were recorded. The ratio of selected ligand signals (for example –CH3 for 1, arene resonances for 2, –CF3 for 3–5) corresponding to the open- and chelate-forms of the complex were determined for each pD value and enabled a plot of % open-form versus pD. pKa values were calculated through fitting of the Henderson-Hasselbalch equation to the data.

For data set [5] the following is noted: cited from earlier work.
Details of data set [6]: method as in doi:10.1021/acs.organomet.7b00868. The note with it: R = Ms, Tf; reported previously; cited from earlier work.

Entries after “also recorded” stand apart in the source; their conditions may differ. Like-named read-outs stand apart in the source and are kept apart here. Marks after values point to notes of the source that are not given here.

Chain of bovine serum albumin (P02769 25-607): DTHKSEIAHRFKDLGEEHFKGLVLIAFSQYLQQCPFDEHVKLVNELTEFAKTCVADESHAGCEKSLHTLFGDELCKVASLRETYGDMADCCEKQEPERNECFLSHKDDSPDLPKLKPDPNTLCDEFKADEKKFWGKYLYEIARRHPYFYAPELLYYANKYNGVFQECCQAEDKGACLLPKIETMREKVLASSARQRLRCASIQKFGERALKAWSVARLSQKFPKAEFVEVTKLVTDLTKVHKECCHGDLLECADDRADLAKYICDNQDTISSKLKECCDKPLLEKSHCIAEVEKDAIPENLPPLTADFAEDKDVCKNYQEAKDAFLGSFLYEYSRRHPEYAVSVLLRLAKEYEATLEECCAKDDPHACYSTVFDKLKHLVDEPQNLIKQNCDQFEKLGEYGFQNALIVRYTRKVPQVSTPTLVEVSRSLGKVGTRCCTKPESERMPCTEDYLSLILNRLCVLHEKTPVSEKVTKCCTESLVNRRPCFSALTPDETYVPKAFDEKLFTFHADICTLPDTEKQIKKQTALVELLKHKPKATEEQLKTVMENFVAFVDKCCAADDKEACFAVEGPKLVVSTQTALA

For the molecule “[Ru(η^6:κ^1-C6H5(CH2)2CH2NTf)(en)]PF6 [Complex 4]”, the “Fraction converted to the open form at equilibrium” value in [1] (pD 4.12, equilibrium reached within 16 h, 2.46 mM complex, 0.1 M NaCl) was found to be 93%. The “Open form present at equilibrium (from data fitting)” value turned out to be 61% in data set [1] (pD 4.91, equilibrium not reached within 16 h) and 24% in data set [1] (pD 5.96, equilibrium not reached within 16 h). For the same molecule, the “Inhibition of cell growth (MTT)” value in the data set on HT-29 cell line (media with 1% fetal calf serum) and in the data set with HT-29 cell line (media with 10% fetal calf serum) was “no significant inhibition of cell growth” each time. Further, the “Non-covalent interaction with bovine serum albumin (1H NMR signals broader and slightly shifted)” value at bovine serum albumin is “non-covalent interactions between 4 and the protein may be occurring”. For the same molecule, the “Reactivity (covalent interaction) towards bovine serum albumin” value on bovine serum albumin (phosphate buffer 0.2 M, 0.1 M NaCl) is “lack of reactivity; also recorded: no covalent interaction”. The “5′-GMP coordinated to the complex” value in the data set with 5′-GMP (pD 6.5, 144 h) is reported as 16 ± 1.6%; with 5′-GMP (pD 7.5, 144 h), “no coordination”. Further, the “Coordination of L-histidine to the complex” value in data set [2] (pD 6.5, 144 h) is reported as “lack of reactivity; also recorded: No coordination”; in data set [2] (pD 7.5, 144 h), “lack of reactivity; also recorded: no coordination”. Also, in data set [3], the “Arene loss on standing of the NMR solution” value is on record as “not observed”. Also, in [4], the “Apparent pKa” value was 4.82.

Take `Nc1nc2c(ncn2[C@@H]2O[C@H](COP(=O)([O-])[O-])[C@@H](O)[C@H]2O)c(=O)[nH]1.[Na+].[Na+]` [5′-GMP, guanosine 5′-monophosphate disodium salt]: the “pKa of the N7 position” value in data set [5] is on record as 2.57.

Turning to “cis-[PtCl(Me2N(CH2)2PPh2-N,P)(Me2N(CH2)2PPh2-P)]Cl”, in data set [5], the “pKa (ring-open/ring-closed equilibrium, pH titrations)” value is 6.9.

Take [Ru(η^6-C6H5CH2CH2NHTf)(C2O4)(H2O)]: the “Apparent pKa for the Analogous [Ru(η^6-C6H5CH2CH2NHR)(C2O4)(H2O)] Complex” value (“Apparent pKa for the Analogous” for short) in [6] was 4.05 ^‡.

Regarding [Ru(η^6-C6H5CH2CH2NHMs)(C2O4)(H2O)], the “Apparent pKa for the Analogous” value in data set [6] is listed as 6.65 ^‡.

For `N[C@@H](Cc1c[nH]cn1)C(=O)O` [L-histidine], the “side chain pKa” value in data set [5] (imidazole) was 6.07.

Take [Ru(η^6-C6H5CH2CH2NHTr)(C2O4)(H2O)]: the “Apparent pKa for the Analogous” value in [4] (R = Tr, 295 K) is listed as 5.75.

With “[Ru(η^6-C6H5(CH2)3CH2NHTf)(en)(Cl)]PF6 [Complex 5]”, in data set [3], the “Arene loss on standing of the NMR solution” value is “not observed”. Further, the “Apparent pKa” value in data set [4] turned out to be 8.00.

(Values after PMC7024221, “The Application of Reversible Intramolecular Sulfonamide Ligation to Modulate Reactivity in Organometallic Ruthenium(II) Diamine Complexes” (Molecules, 2020).)
